Counter-ions that a name gives are not always drawn.
Target: T1, [^3 H] GBR12935 binding in rat strialal crude membrane (Rattus norvegicus, UniProt P23977)
T1 construct: from tissue; host or cells: corpus striatum of Wistar male rat, crude membrane
Experiment: [^3 H] GBR12935 binding in rat striatal crude membrane
Set-up: species or system rat (Wistar male)
Conditions: 1 nM [^3 H] GBR12935, rat striatal crude membrane; for IC50: 4° C., 80 minutes
Procedure: After a cold 50 mM Tris-citrate buffer (pH 7.4, including 120 mM NaCl and 4 mM MgCl2) was added to a corpus striatum taken out of a Wistar male rat aged 12-13 weeks (while keeping on ice) to homogenize the resultant mixture, the homogenate was subjected twice to centrifugation under chilling for 20 minutes at 48,000 g. The final sedimentation residue thus obtained was suspended again in the same buffer as that used above to conserve the suspension at -80° C.
After thawing this frozen suspension, the thawed suspension was diluted to one thousandth of the amount of the tissue with the same buffer as that used above. To 0.8 ml of this crude membrane sample, were added [^3 H] GBR12935 (final concentration: 1 nM) and individual test substances and amantadine which is in clinical use at present (developing the concentration within a range of from 10^-3 to 10^-9 M) to 1 ml in total. Each of the resulting sample mixtures was incubated at 4° C. for 80 minutes in a plastic tube. After the incubation, the mixture was filtered by means of suction on a glass filter (Whatman GP/B) soaked in a 0.1% BSA, and the filter was washed three times with 3 ml of cold 0.9% NaCl. The thus-obtained filter was placed in a vial, and 10 ml of Aquazol-2 were added to conserve the filter overnight. Thereafter, the radioactivity of the sample was measured by a liquid scintillation counter. An IC50 value and a Hill coefficient were determined from the obtained uptake inhibition curve as to each of the test samples.

T1 sequence (P23977 whole entry): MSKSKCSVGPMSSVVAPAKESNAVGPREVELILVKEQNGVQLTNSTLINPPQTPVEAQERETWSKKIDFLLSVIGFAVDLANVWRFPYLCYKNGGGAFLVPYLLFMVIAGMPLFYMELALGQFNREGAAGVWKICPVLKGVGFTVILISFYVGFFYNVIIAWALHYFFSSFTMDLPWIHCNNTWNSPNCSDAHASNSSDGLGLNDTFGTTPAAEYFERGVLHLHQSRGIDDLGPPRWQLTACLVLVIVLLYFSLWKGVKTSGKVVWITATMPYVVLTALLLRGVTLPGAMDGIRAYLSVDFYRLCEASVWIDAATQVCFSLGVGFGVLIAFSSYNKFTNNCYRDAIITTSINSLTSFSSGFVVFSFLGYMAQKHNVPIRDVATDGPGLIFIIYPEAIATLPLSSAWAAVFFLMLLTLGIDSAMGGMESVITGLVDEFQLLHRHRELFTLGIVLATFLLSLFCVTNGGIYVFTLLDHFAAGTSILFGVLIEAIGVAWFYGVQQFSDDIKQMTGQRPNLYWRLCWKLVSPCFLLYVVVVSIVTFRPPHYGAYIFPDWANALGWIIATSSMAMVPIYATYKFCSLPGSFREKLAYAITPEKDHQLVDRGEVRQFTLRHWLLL

SMILES	Hill coefficient (nH)	IC50 [µM]	IC50 (amantadine line in μM) [µM]
OC(CNc1ccccc1)CN1CCN(CCCC(c2ccc(F)cc2)c2ccc(F)cc2)CC1 (single isomer, unassigned; (+)) [Compound 16, (+)-1-[4,4-Bis(4-fluoro-phenyl)butyl]-4-(2-hydroxy-3-phenylaminopropyl)piperazinedihydrochloride]	0.57 ± 0.04	0.002 ± 0.00053	
OC(CNc1ccccc1)CN1CCN(CCCC(c2ccc(F)cc2)c2ccc(F)cc2)CC1 (single isomer, unassigned; (-)) [Compound 15, (-)-1-[4,4-Bis(4-fluoro-phenyl)butyl]-4-(2-hydroxy-3-phenylaminopropyl)piperazinedihydrochloride]	0.72 ± 0.05	0.002 ± 0.0001	
NC12CC3CC(CC(C3)C1)C2 [Amantadine, amantadine, reference compound]	1.36 ± 0.08		819 ± 30.9
OC(CNc1ccccc1)CN1CCN(C(c2ccc(F)cc2)c2ccc(F)cc2)CC1 (centres unmarked) [Compound 2, 1-[Bis(4-fluorophenyl)methyl]-4-(2-hydroxy-3-phenylamino-propyl)piperazine dihydro-chloride]	0.66 ± 0.05	0.02 ± 0.003	
Cl.Cl.OC(CNc1ccc(F)cc1)CN1CCN(CCCC(c2ccc(F)cc2)c2ccc(F)cc2)CC1 (centres unmarked) [Compound 9, 1-[4,4-Bis(4-fluorophenyl)-butyl]-4-[3-(4-fluorophenyl-amino)-2-hydroxypropyl]-piperazine dihydrochloride]	0.74 ± 0.01	0.004 ± 0.00023	
Cl.Cl.OC(CNc1ccc(Cl)cc1)CN1CCN(CCCC(c2ccc(F)cc2)c2ccc(F)cc2)CC1 (centres unmarked) [Compound 10, 1-[4,4-Bis(4-fluorophenyl)-butyl]-4-[3-(4-chlorophenyl-amino)-2-hydroxypropyl]-piperazine dihydrochloride]	0.82 ± 0.03	0.003 ± 0.00032	
COc1cc(NCC(O)CN2CCN(CCCC(c3ccc(F)cc3)c3ccc(F)cc3)CC2)cc(OC)c1OC.O=C(O)/C=C\C(=O)O.O=C(O)/C=C\C(=O)O (centres unmarked) [Compound 11, 1-[4,4-Bis(4-fluorophenyl)-butyl]-4-[2-hydroxy-3-(3,4,5-trimethoxyphenylamino)propyl]-piperazine dimaleate]	0.79 ± 0.04	0.043 ± 0.00532	
OC(CNc1ccc(Cl)c(Cl)c1)CN1CCN(CCCC(c2ccc(F)cc2)c2ccc(F)cc2)CC1 (centres unmarked) [Compound 12, 1-[4,4-Bis(4-fluorophenyl)-buyl]-4-[3-(3,4-dichloro-phenylamino)-2-hydroxy-propyl]piperazinedihydrochloride]	0.74 ± 0.03	0.012 ± 0.00072	
COc1ccc(NCC(O)CN2CCN(CCCC(c3ccc(F)cc3)c3ccc(F)cc3)CC2)cc1.Cl.Cl (centres unmarked) [Compound 13, 1-[4,4-Bis(4-fluorophenyl)-butyl]-4-(2-hydroxy-3-(4-methoxyphenylamino)propyl]-piperazine dihydrochloride]	0.52 ± 0.02	0.003 ± 0.00016	
Cc1ccc(NCC(O)CN2CCN(CCCC(c3ccc(F)cc3)c3ccc(F)cc3)CC2)cc1.Cl.Cl (centres unmarked) [Compound 14, 1-[4,4-Bis(4-fluorophenyl)-butyl]-4-[2-hydroxy-3-(4-methylphenylamino)propyl]-piperazine dihydrochloride]	0.65 ± 0.03	0.004 ± 0.00041	
O=C(O)/C=C\C(=O)O.O=C(O)/C=C\C(=O)O.O=C(O)/C=C\C(=O)O.OC(CNc1ccncc1)CN1CCN(CCCC(c2ccc(F)cc2)c2ccc(F)cc2)CC1 (centres unmarked) [Compound 17, 1-[4,4-Bis(4-fluorophenyl)-butyl]-4-[2-hydroxy-3-(4-pyridylamino)propyl]-piperazine trimaleate]	0.74 ± 0.04	0.034 ± 0.002	
OC(CNc1ccccc1)CN1CCN(CCC(c2ccc(F)cc2)c2ccc(F)cc2)CC1 (centres unmarked) [Compound 18, 1-[3,3-Bis(4-fluorophenyl)-propyl]-4-(2-hydroxy-3-phenylaminopropyl)piperazinedihydrochloride]	0.67 ± 0.04	0.007 ± 0.00065	
OC(CNc1ccccc1)CN1CCN(CC(c2ccccc2)c2ccccc2)CC1 (centres unmarked) [Compound 19, 1-(2,2-Diphenylethyl)-4-(2-hydroxy-3-phenylamino-propyl)piperazinedihydrochloride]	0.76 ± 0.02	0.028 ± 0.002	
Cl.Cl.O=[N+]([O-])c1ccc(NCC(O)CN2CCN(CCCC(c3ccc(F)cc3)c3ccc(F)cc3)CC2)cc1 (centres unmarked) [Compound 20, 1-[4,4-Bis(4-fluorophenyl)-butyl]-4-[2-hydroxy-3-(4-nitrophenylamino)propyl]-piperazine dihydrochloride]	0.69 ± 0.04	0.008 ± 0.0005	
OC(CNc1ccccc1)CN1CCN(CCCCC(c2ccc(F)cc2)c2ccc(F)cc2)CC1 (centres unmarked) [Compound 21, 1-[5,5-Bis(4-fluorophenyl)-pentyl]-4-(2-hydroxy-3-phenylaminopropyl)piperazinedihydrochloride]	0.89 ± 0.07	0.006 ± 0.00032	
CC(C)(C)c1cc(NCC(O)CN2CCN(CCCC(c3ccc(F)cc3)c3ccc(F)cc3)CC2)cc(C(C)(C)C)c1O (centres unmarked) [Compound 22, 1-[4,4-Bis(4-fluorophenyl)-butyl]-4-[3-(3,5-di-tert-butyl-4-hydroxyphenylamino)-2-hydroxypropyl]piperazinetrimaleate]	0.78 ± 0.07	0.087 ± 0.007	
Nc1ccc(NCC(O)CN2CCN(CCCC(c3ccc(F)cc3)c3ccc(F)cc3)CC2)cc1 (centres unmarked) [Compound 23, 1-[3-(4-Aminophenylamino)-2-hydroxypropyl]-4-(4,4-bis(4-fluorophenyl)butyl]piperazinetrimaleate]	0.64 ± 0.09	0.037 ± 0.009	
CN(C)c1ccc(NCC(O)CN2CCN(CCCC(c3ccc(F)cc3)c3ccc(F)cc3)CC2)cc1 (centres unmarked) [Compound 24, 1-[4,4-Bis(4-fluorophenyl)-butyl]-4-[3-(4-dimethyl-aminophenylamino)-2-hydroxy-propyl]piperazine dimaleate]	0.94 ± 0.10	0.109 ± 0.019	
O=C(O)/C=C\C(=O)O.O=C(O)/C=C\C(=O)O.Oc1ccc(NCC(O)CN2CCN(CCCC(c3ccc(F)cc3)c3ccc(F)cc3)CC2)cc1 (centres unmarked) [Compound 25, 1-[4,4-Bis(4-fluorophenyl)-butyl]-4-[2-hydroxy-3-(4-hydroxyphenylamino)propyl]-piperazine dimaleate]	0.63 ± 0.09	0.01 ± 0.003	

— patent US5747493A, “Dopamine re-uptake inhibitor” (Pola Chemical Industries, Inc., priority 1993, dated 1998)
